A word on the MIC: it is the lowest concentration found to suppress growth.

SMILES strings stand for the structures. Converted amounts (≈) assume the structure as drawn. “And” between values parts separate entries of the source, which are not always exact repeats. Equal entries are not always repeated. A value given as a limit tells only on which side of the number the result lay.

Among the test systems are Vibrio anguillarum; Bacillus subtilis; Vibrio harveyi; Micrococcus luteus; Escherichia coli 363; Aerococcus viridans; Aeromonas hydrophila; Candida albicans; Candida albicans SC5314; Pseudomonas aeruginosa; Escherichia coli.
Assay in all cases: ≥ marks a high value that may be exact or a test limit, other limits are often not marked, values filed in µg/mL are converted to µM
Assay [1] concerns Erwinia amylovora PMV 6076.
In assay [2] the test system is Pseudomonas syringae pv. syringae EPS 94.
Assay [3] concerns Xanthomonas campestris pv. Vesicatoria 2133-2.
The subject of assay [4] is Pseudomonas syringae pv. actinidiae Psa3700.1.1.
Assay [5] concerns Xanthomonas arboricola pv. pruni CFBP 5563.
Assay [6] relates to Xanthomonas fragariae Xf349-9A.
The test system of assay [7] is Staphylococcus haemolyticus.
Assay [8] deals with Salmonella enterica subsp. enterica serovar Typhimurium ATCC 14028.
In assay [9] the test system is Enterococcus faecalis ATCC 12953.
The test system of assay [10] is Pseudomonas aeruginosa ATCC 15442.
The test system of assay [11] is Proteus mirabilis ATCC 25933.
Assay [12] relates to Klebsiella pneumoniae ATCC 13885.
In assay [13] the test system is Escherichia coli ATCC 8739.
Assay [14] has as its system Streptococcus pyogenes ATCC 19615.
The test system of assay [15] is Staphylococcus aureus ATCC 29213.
Assay [16] has as its system Bacillus subtilis ATCC 6633.
The test system of assay [17] is Pseudomonas aeruginosa ATCC 27853.
The subject of assay [18] is Staphylococcus aureus 08A865.
The subject of assay [19] is Candida albicans 08022710.
Assay [20] has as its system Staphylococcus aureus ATCC 2592.
For assay [21], the system named is Pseudomonas aeruginosa 08031014.
Assay [22] deals with Staphylococcus aureus 08A875.
In assay [23] the test system is Candida albicans 08022821.
Assay [24] deals with Candida albicans ATCC 2002.

Turning to `CC[C@H](C)[C@H](NC(=O)[C@H](CCCCN)NC(=O)[C@H](CCCCN)NC(=O)[C@H](CC(C)C)NC(=O)[C@H](CC(=O)O)NC(=O)[C@@H](NC(=O)[C@@H](N)Cc1ccccc1)C(C)C)C(=O)N[C@@H](C)C(=O)N[C@@H](CC(N)=O)C(=O)N[C@H](C(=O)N[C@H](C(=O)N[C@@H](CC(N)=O)C(=O)N[C@@H](CO)C(=O)N[C@H](C(=O)N[C@@H](Cc1ccccc1)C(=O)NCC(=O)N[C@@H](CCCCN)C(N)=O)[C@@H](C)CC)[C@@H](C)CC)[C@@H](C)CC` [FVDLKKIANIINSIFGK], the minimal inhibitory concentration (MIC) in [1] was no less than 35.4 µM; in [2], no less than 50 µM; in assay [3], 4.38 µM (≈ 8.41 µg/mL); in [4], no less than 50 µM; in [5] it was 2.84 µM (≈ 5.45 µg/mL); in [6] it was no less than 50 µM.
For `CC[C@H](C)[C@H](N)C(=O)N1CCC[C@H]1C(=O)N[C@@H](C)C(=O)N[C@@H](CCSC)C(=O)N[C@@H](CCC(=O)O)C(=O)N1CCC[C@H]1C(=O)N[C@@H](C)C(=O)N[C@@H](C)C(=O)N[C@@H](CCCN=C(N)N)C(=O)N[C@H](C(=O)N[C@@H](CCCCN)C(=O)N[C@@H](CCCN=C(N)N)C(=O)N[C@@H](CO)C(=O)N1CCC[C@H]1C(=O)NCC(=O)N[C@@H](Cc1ccc(O)cc1)C(=O)NCC(=O)NCC(=O)N[C@H]1CSSC[C@@H](C(=O)NCC(=O)NCC(=O)N[C@@H](Cc2ccc(O)cc2)C(=O)NCC(=O)O)NC(=O)[C@H](C)NC(=O)[C@H](Cc2c[nH]c3ccccc23)NC(=O)[C@H](CCCN=C(N)N)NC(=O)[C@@H]2CCCN2C(=O)[C@H](CO)NC1=O)C(C)C` [IPAMEPAARVKRSPGYGGCSPRWACGGYG], the MIC with Vibrio anguillarum is no less than 50 µM; in [7], no less than 50 µM; against Bacillus subtilis, no less than 50 µM; in the assay on Vibrio harveyi, no less than 50 µM; with Micrococcus luteus it was 25 µM (≈ 74.8 µg/mL); in the assay on Escherichia coli 363 it was no less than 50 µM. Also, the results for the MIC in the assay on Aerococcus viridans and with Aeromonas hydrophila were 12.5 µM (≈ 37.4 µg/mL) and no less than 50 µM, respectively.
As to `CC[C@H](C)[C@H](N)C(=O)N[C@@H](Cc1ccc(O)cc1)C(=O)N[C@@H](Cc1ccc(O)cc1)C(=O)N1CCC[C@H]1C(=O)N1CCC[C@H]1C(=O)N[C@@H](CC(N)=O)C(=O)N[C@@H](Cc1cnc[nH]1)C(=O)N[C@@H](CC(N)=O)C(=O)N[C@@H](Cc1ccccc1)C(=O)N1CCC[C@H]1C(N)=O` [IYYPPNHNFP], the minimum inhibitory concentration (MIC) was 203 µM (≈ 256 µg/mL) in [8]; no less than 101 µM in [9]; no less than 203 µM in assay [10]; no less than 101 µM in [11]; no less than 101 µM in assay [12]; no less than 203 µM in assay [13]. Besides, the values for the minimum inhibitory concentration (MIC) in assay [14], in [15] and in assay [16] were no less than 101 µM, 203 µM (≈ 256 µg/mL) and no less than 203 µM, respectively.
For the compound `CC[C@H](C)[C@H](NC(=O)[C@H](Cc1cnc[nH]1)NC(=O)[C@H](CO)NC(=O)[C@@H](NC(=O)[C@@H](NC(=O)[C@@H](NC(=O)[C@@H](NC(=O)[C@H](CCCNC(=N)N)NC(=O)[C@H](CC(C)C)NC(=O)[C@H](CCCCN)NC(=O)[C@H](CCC(=O)O)NC(=O)[C@H](CCCCN)NC(=O)[C@H](CC(C)C)NC(=O)[C@H](CCCCN)NC(=O)[C@@H]1CSSC[C@H](NC(=O)[C@H](CCCCN)NC(=O)[C@@H](N)CCCNC(=N)N)C(=O)N[C@@H](CC(N)=O)C(=O)N[C@@H](Cc2ccccc2)C(=O)N[C@@H](CC(C)C)C(=O)N1)[C@@H](C)O)C(C)C)[C@@H](C)CC)[C@@H](C)O)C(=O)N[C@@H](CC(=O)O)C(=O)N[C@@H](CCCCN)C(=O)N[C@H](C(=O)N[C@@H](CC(C)C)C(=O)N[C@@H](CCCNC(=N)N)C(=O)N1CCC[C@H]1C(=O)N[C@@H](CCC(N)=O)C(=O)NCC(=O)O)C(C)C` [RKCNFLCKLKEKLRTVITSHIDKVLRPQG], the minimal inhibitory concentration (MIC) in the assay with Candida albicans was 1.37 µM (≈ 4.69 µg/mL); in the assay on Candida albicans SC5314, no less than 64 µM; in assay [17] it was 5.47 µM and > 2.74 µM; with Pseudomonas aeruginosa, 2.74 µM (≈ 9.37 µg/mL); in assay [18] it was 2.74 µM (≈ 9.37 µg/mL); in assay [19] it was 5.47 µM (≈ 18.7 µg/mL). Further, the MIC in the assay on Escherichia coli was 1.94 µM (≈ 6.63 µg/mL); in assay [20], 2.74 µM and 1.37 µM; in [15], greater than 64 µM; in [16], 29.2 µM and 21.9 µM; in assay [21], 10.9 µM (≈ 37.5 µg/mL); in [22], 5.47 µM (≈ 18.7 µg/mL). Moreover, the MIC in assay [23] is 2.74 µM (≈ 9.37 µg/mL); in assay [24] it was 1.37 µM and 0.686 µM.

The values above are taken from DBAASP.
